A short description of series [1]: logP by HPLC on reversed-phase columns (EEC directive 79/831 Annex V.A8). The format is physicochemical. The settings on record: for chromatographic logP: [b] LC-MS determination in the acidic range at pH 2.7, 0.1% aqueous formic acid and acetonitrile, read-out: log p. The protocol: Calibration was carried out using unbranched alkan-2-ones (having from 3 to 16 carbon atoms) with known logP values (the logP values were determined by the retention times using linear interpolation between two successive alkanones).

The test system of a further series is Phakopsora pachyrhizi. The series can be described thus: Phakopsora Test (soya beans)/Protective. The format is in vivo. The settings on record: protective, active compound concentration 100 ppm, evaluation 11 days after inoculation. The protocol:
Phakopsora Test (soya beans)/Protective
One day after spraying, the plants are inoculated with an aqueous spore suspension of the soya bean rust pathogen (Phakopsora pachyrhizi). The plants are placed in a greenhouse at 20° C. and a rel. atmospheric humidity of 80%.
Evaluation is carried out 11 days after the inoculation.

For another series, the system named is Fusarium proliferatum. The series can be described thus: Production of Fumonisin FB1 by Fusarium proliferatum. The format is cell-based. Conditions: 120 h, read-out: inhibition of fumonisin FB1 production. The protocol:
Production of Fumonisin FB1 by Fusarium proliferatum
The compounds were tested in microtitre plates at 5 concentrations of from 0.08 μM to 50 μM in a fumonisin-inducing liquid medium (0.5 g of malt extract, 1 g of yeast extract, 1 g of bactopeptone, 20 g of fructose, 1 g of KH2PO4, 0.3 g of MgSO47 H2O, 0.3 g of KCl, 0.05 g of ZnSO47 H2O and 0.01 g of CuSO4×5 H2O per litre) with DMSO (0.5%). Inoculation was carried out using a concentrated spore suspension of Fusarium proliferatum at a final concentration of 2000 spores/ml.
The plate was incubated at 20° C. and high atmospheric humidity for 5 days.
At the beginning and after 5 days, the OD was measured at OD620 (repeated measurements: 3×3 measurements per well) to calculate the inhibition of growth.
After 5 days, a sample of the liquid medium was removed and diluted 1:1000 with 50% strength acetonitrile. The concentration of FB1 of the diluted samples was analysed by HPLC-MS/MS, and the measured values were used to calculate the inhibition of fumonisin FB1 production compared to an active compound-free control. […]

In the next series the test system is Sphaerotheca fuliginea. Conditions: cucumber, protective, active compound concentration 500 ppm, evaluation 7 days after inoculation. The protocol: Sphaerotheca Test (cucumber)/protective
1 day after the treatment, the plants are inoculated with a spore suspension of Sphaerotheca fuliginea. The plants are then placed in a greenhouse at a relative atmospheric humidity of 70% and a temperature of 23° C.
Evaluation is carried out 7 days after the inoculation.

Structures can show the parent of a compound that is named as a salt. Where two headings read alike, the source gives them in different places. Marks after values point to notes of the source that are not given here.

With `CCN(C)C=Nc1cc(C)c(Oc2nc(Cc3ccc(Cl)cc3)ns2)cc1C.O=S(=O)(O)O` [Example 1, N′-(4-{[3-(4-chlorobenzyl)-1,2,4-thiadiazol-5-yl]oxy}-2,5-dimethylphenyl)-N-ethyl-N-methylimidoformamidesulphate], the log p in series [1] (pH 2.7) is 1.88^[b].
Usually inhibition stands for the percentage by which the read-out fell short of the control. Regarding `Br.CCN(C)C=Nc1cc(C)c(Oc2nc(Cc3ccc(Cl)cc3)ns2)cc1C` [Example 2, N′-(4-{[3-(4-chlorobenzyl)-1,2,4-thiadiazol-5-yl]oxy}-2,5-dimethylphenyl)-N-ethyl-N-methylimidoformamide hydrobromide], the chromatographic logP in series [1] (reversed-phase HPLC column) was determined as 1.83. Also, the efficacy in the series on Phakopsora pachyrhizi is given as at least 80%. Besides, the inhibition at 50 µM with Fusarium proliferatum was over 80%.
For `CCN(C)C=Nc1cc(C)c(Oc2nc(Cc3ccc(Cl)cc3)ns2)cc1C` [Example 3, N′-(4-{[3-(4-Chlorobenzyl)-1,2,4-thiadiazol-5-yl]oxy}-2,5-dimethylphenyl)-N-ethyl-N-methylimidoformamide hydrochloride (1:1)], the chromatographic logP in series [1] amounted to 2.03.
“N′-(4-{[3-(4-chlorobenzyl)-1,2,4-thiadiazol-5-yl]oxy}-2,5-dimethylphenyl)-N-ethyl-N-methylimido-formamide-1,2-benzothiazol-3(2H)-one 1,1-dioxide [Example 4]” registered an efficacy in the series on Sphaerotheca fuliginea of at least 70%.

Values taken from US20110177943A1, “Benzyl-Substituted Thiadiazolyloxyphenylamidinium Salts” (priority 2009, published 2011).
